According to patent publication US20030170693A1, “Assay for identifying modulators of Borrelia telomere resolvase” (priority 2001, published 2003):
Read-outs that look alike come from different tables or passages of the source. One block for each compound: values may come before it.

Key:
[1] = target: B. burgdorferi strain (NGR) carrying a triple mutation in the gyrB gene; assay: Growth of B. burgdorferi strain (NGR) carrying coumarin-resistant gyrase in culture; format: cell-based, Borrelia burgdorferi; details: read-out: IC50, inhibition of growth of B. burgdorferi carrying the resistant gyrase
Method: To determine whether coumermycin Al and novobiocin could block growth of B. burgdorferi in culture, a B. burgdorferi strain (NGR) carrying a triple mutation in the gyrB gene (Knight et al., 2000; Rosa et al., 1996) was used (provided by Dr. D. Scott Samuels, University of Montana, Missoula). The triple mutation in the gyrase B subunit renders the mutant DNA gyrase resistant to coumermycin A1 and novobiocin. B. burgdorferi carrying the resistant gyrase was grown in the absence, or in the presence of increasing amounts of coumermycin A1 or novobiocin. […] The drug concentrations for complete inhibition of growth were almost identical to the concentrations of both drugs required for complete inhibition of ResT in vitro.

ResT = target: T1, ResT (Borreliella burgdorferi, UniProt O50979); assay: In vitro telomere resolution by ResT (plasmid substrate, agarose gel); format: biochemical; details: for concentration at which complete inhibition of ResT activity was observed: pYT1 as the substrate, agarose gel, FIG. 8A; for effect of peptide on in vitro ResT activity: peptide inhibitors of tyrosine recombinase or topoisomerase, FIG. 9; for inhibition of ResT: 2 mM, data not shown
T1 construct: made in house; host or cells: E. coli BL21 (lambda DE3) pLysS, strain BGC88 carrying pKK4
T1 sequence (O50979 1-449): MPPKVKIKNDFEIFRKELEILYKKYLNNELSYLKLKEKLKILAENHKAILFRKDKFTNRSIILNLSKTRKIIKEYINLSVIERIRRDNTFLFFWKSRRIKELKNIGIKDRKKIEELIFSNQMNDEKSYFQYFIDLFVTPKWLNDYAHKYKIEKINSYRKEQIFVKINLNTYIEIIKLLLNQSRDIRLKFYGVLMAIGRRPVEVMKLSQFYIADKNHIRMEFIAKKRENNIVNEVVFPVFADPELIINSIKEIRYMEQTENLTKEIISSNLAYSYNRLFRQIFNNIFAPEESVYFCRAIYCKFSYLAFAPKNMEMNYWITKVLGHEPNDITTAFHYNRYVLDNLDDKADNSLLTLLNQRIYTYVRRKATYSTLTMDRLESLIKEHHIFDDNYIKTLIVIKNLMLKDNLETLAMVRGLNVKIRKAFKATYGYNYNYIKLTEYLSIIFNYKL
Method: The activity of the purified recombinant protein (ResT) was assayed using plasmids previously established to be in vivo substrates for telomere resolution in B. burgdorferi (Chaconas et al., 2001). pGCL15-6 has a 70 bp replicated left-end telomere from the linear plasmid Ip17 (FIG. 1B). Typical reaction conditions, herein defined as 1× reaction are as follows: 25 mM Tris-HCl [pH 8.5], 100 mM NaCl, 1 mM EDTA, 5 mM spermidine, 100 μg/ml bovine serum albumin, 5 μg/ml substrate DNA and 2 μg/ml ResT. Reactions (typically 30 μl) were incubated at 30° C. for 30 min and terminated by addition of SDS to a final concentration of 0.5%. Spermidine contributes an approximate 3-fold stimulation to the reaction and was therefore omitted from the reactions used for cleavage site determination. Linearized and relaxed plasmid substrates were prepared in 10-20 μg batches by reaction with the specified restriction enzyme with the manufacturers buffers or with Shope Fibroma Virus topoisomerase I (gift of Dr. David Evans, University of Guelph), in ResT reaction buffer. These reactions were then extracted with phenol/chloroform, chloroform alone, and subsequently ethanol precipitated and resuspended in 25 mM Hepes-NaOH [pH 7.6], 0.1 mM EDTA.
Reactions were performed containing increasing amounts of the topoisomerase inhibitors coumermycin A1 or novobiocin. The reactions were analyzed by agarose gel electrophoresis followed by staining with ethidium bromide.
In vitro ResT activity was assayed in the presence of peptide inhibitors provided by Dr. Anca Segall, San Diego State University. These peptides were previously characterized as inhibitors of tyrosine recombinase or topoisomerase activity (Cassell et al., 2000; Klemm et al., 2000). […] The results also raise the possibility for further development of peptide inhibitors of ResT for therapeutic and/or environmental agents to inhibit growth of Borrelia species.

Compound: coumermycin A1
IC50 ([1]; gyrB triple mutant strain NGR, FIG. 8B): 75 µM | concentration at which complete inhibition of ResT activity was observed (ResT): 150 µM

Compound: peptide #59: peptide which inhibits DNA cleavage by λ integrase (KWWCRW; Peptide #59)
effect of peptide on in vitro ResT activity (ResT): mild stimulator

Compound: Peptide #52: peptide which traps the Holliday junction intermediate in λ recombination (WKHYNY; Peptide #52)
effect of peptide on in vitro ResT activity (ResT): did not have any effect

stimulation of the in vitro telomere resolution reaction (ResT; 5 mM spermidine in 1× reaction): ~3 fold
Compound: NCCCCNCCCN [spermidine]

Compound: CCn1cc(C(=O)O)c(=O)c2ccc(C)nc21 [nalidixic acid]
inhibition of ResT (ResT): did not inhibit

Compound: CO[C@@H]1[C@@H](OC(N)=O)[C@@H](O)[C@H](Oc2ccc3c(O)c(NC(=O)c4ccc(O)c(CC=C(C)C)c4)c(=O)oc3c2C)OC1(C)C [novobiocin]
IC50 ([1]; Borreliella burgdorferi): 255 µM | concentration at which complete inhibition of ResT activity was observed (ResT): 1000 µM

Compound: CC[C@@]1(O)C(=O)OCc2c1cc1n(c2=O)Cc2cc3ccccc3nc2-1 [camptothecin]
inhibition of ResT (ResT): did not inhibit
